Read-outs that look alike come from different tables or passages of the source.
Tests used:
Format in all cases: in vivo
armyworm = test: Determination of activity against armyworm (corn leaf dip, mortality after 72 hours); conditions: foliar, 10 mg/L, third instar, read-out: mortality rates against armyworm
Protocol: (§1) According to the solubility of test compounds, the compounds are dissolved with acetone or dimethyl sulfoxide, and then diluted with 0.1% Tween 80 solution to form a required concentration of 50 ml test liquid. The content of the acetone or the dimethyl sulfoxide in the total solution is not more than 10%.
The middle leaves of fresh corns were cut into small sections of 3 cm, and dipped into a solution of the required concentration of test compounds for 10 seconds. After dried in shade, the middle leaves were placed in a 9 cm diameter petri dish provided with filter paper. Fourteen regular healthy test insects (third instar) were put into the leaves. Four replicates were set for each treatment. The pure water treatment was set as control check. The treated discs were placed in a chamber of 24° C., 60%-70% relative humidity and day light. After 72 hours, the number of surviving insects was investigated, and the mortality rate was calculated.

diamondback moth = test: Determination of activity against diamondback moth (cabbage leaf disc dip, mortality after 72 hours); conditions: Plutella xylostella, foliar, 10 mg/L, second instar, read-out: mortality rates against diamondback moth
Protocol: as §1
The leaves of cabbage grown in greenhouse were selected, removed the surface waxy layers, punched into circular leaf discs with a diameter of 2 cm by using a puncher, and dipped into a solution of the required concentration of test compounds for 10 seconds. After dried in shade, the circular leaf discs were placed in a 9 cm diameter petri dish provided with filter paper. Ten regular healthy test insects (second instar) were put into the leaf discs. Four replicates were set for each treatment. The pure water treatment was set as control check. The treated discs were placed in a chamber of 24° C., 60%-70% relative humidity and day light. After 72 hours, the number of surviving insects was investigated, and the mortality rate was calculated.

[1] = system: western flower thrips nymphs; test: Determination of activity against western flower thrips nymphs (sprayed kidney bean leaves, mortality after 72 hours); conditions: for mortality at 600 µg/mL / mortality at 10 µg/mL / mortality at 100 µg/mL: Frankliniella occidentalis; for mortality at 600 µg/mL: 600 mg/L, read-out: mortality rates against western flower thrips nymphs; for mortality at 10 µg/mL / mortality at 100 µg/mL: read-out: Mortality (%) against Western Flower Thrips Nymphs
Protocol: as §1
Fresh kidney bean leaves cultured in the glasshouse were selected and uniformly sprayed with 1 ml of the test liquid by using a handheld Airbrush. The leaves were dried naturally and placed in a test tube. Fifteen tidy and healthy western flower thrips nymphs were put into the leaves. Three replicates were set for each treatment. The water treatment was set as control check. After the treatment, the treated tube were placed in a chamber of 24° C., 60%-70% relative humidity and day light. After 72 hours, the number of surviving insects was investigated, and the mortality was calculated.

[2] = system: Tribolium confusum adults; test: Determination of Tribolium confusum adults (treated feeding bran, 72 h); conditions: for mortality at 600 µg/mL: 600 mg/L, read-out: mortality rates against Tribolium confusum adults; for mortality at 5 µg/mL / mortality at 20 µg/mL: read-out: Mortality (%) against Tribolium Confusum Adults
Protocol: as §1
The test liquid was prepared in the order from low dose to high dose according to the test design. Then, the liquid of different concentrations was added to feeding bran and uniformly stirred, and dried in the shade. Then, the resulting feeding bran was collected in a paper cup. Fifty Tribolium confusum adults with consistent size were put in the paper cup. Three replicates were set for each treatment. Control check was set. The treated test materials were put in an observation room under controlled conditions. After 72 h, the number of dead and surviving adults was investigated.

[3] = system: Tetranychus cinnabarinus adults; test: Determination of acaricidal activity (spray on bean plant leaves with adult spider mites, mortality after 72 hours); conditions: after 72 hours, read-out: Mortality (%) against Tetranychus Cinnabarinus Adult; for mortality at 10 µg/mL: 10 mg/L; for mortality at 100 µg/mL: 100 mg/L; for mortality at 600 µg/mL: 600 mg/L
Protocol: as §1
The adult spider mites were put into two true leaves of bean plants. After the number of mites was investigated, the solution of certain concentrations of test compounds was sprayed by using a handheld Airbrush. Three replicates were set for each treatment. Then the leaves were maintained in a standard observation room. After 72 hours, the number of surviving mites was investigated, and the mortality rate was calculated. Compounds I-41, KC3, KC4 and MC were selected for parallel determination of activity against Tetranychus cinnabarinus adults.

O=C(Nc1cccc(C(=O)Nc2c(I)cc(C(F)(C(F)(F)F)C(F)(F)F)cc2OC(F)F)c1F)c1ccc2c(c1)OC(F)(F)O2 [Compound I-1]
mortality at 10 µg/mL (armyworm): > 90% | mortality at 10 µg/mL (diamondback moth): > 90% | mortality at 600 µg/mL ([1]; after 72 hours): > 90% | mortality at 600 µg/mL ([2]; after 72 h): > 90%

CN(C(=O)c1ccc2c(c1)OC(F)(F)O2)c1cccc(C(=O)Nc2c(I)cc(C(F)(C(F)(F)F)C(F)(F)F)cc2OC(F)F)c1F [Compound I-2]
mortality at 10 µg/mL (armyworm): > 90% | mortality at 10 µg/mL (diamondback moth): > 90% | mortality at 600 µg/mL ([1]; after 72 hours): > 90% | mortality at 600 µg/mL ([2]; after 72 h): > 90%

O=C(Nc1cccc(C(=O)Nc2c(Br)cc(C(F)(C(F)(F)F)C(F)(F)F)cc2OC(F)F)c1F)c1ccc2c(c1)OC(F)(F)O2 [Compound I-41]
mortality at 10 µg/mL (armyworm): > 90% | mortality at 10 µg/mL (diamondback moth): > 90% | mortality at 10 µg/mL ([1]; 10 mg/L, after 72 hours): 90% | mortality at 100 µg/mL ([1]; 100 mg/L, after 72 hours): 95% | mortality at 600 µg/mL ([1]; after 72 hours): > 90% | mortality at 10 µg/mL [3]: 87% | mortality at 100 µg/mL [3]: 100% | mortality at 600 µg/mL [3]: 100% | mortality at 600 µg/mL ([2]; after 72 h): > 90%

CN(C(=O)c1ccc2c(c1)OC(F)(F)O2)c1cccc(C(=O)Nc2c(Br)cc(C(F)(C(F)(F)F)C(F)(F)F)cc2OC(F)F)c1F [Compound I-42, N-(2-bromo-6-difluoromethoxy-4-heptafluoroisopropylphenyl)-2-fluoro-3-(N-methyl-2,2-difluoro-1,3-benzodioxole-5-carboxamido) benzamide]
mortality at 10 µg/mL (armyworm): > 90% | mortality at 10 µg/mL (diamondback moth): > 90% | mortality at 10 µg/mL ([1]; 10 mg/L, after 72 hours): 91% | mortality at 100 µg/mL ([1]; 100 mg/L, after 72 hours): 100% | mortality at 600 µg/mL ([1]; after 72 hours): > 90% | mortality at 5 µg/mL ([2]; 5 mg/L, after 72 h): 81% | mortality at 20 µg/mL ([2]; 20 mg/L, after 72 h): 100% | mortality at 600 µg/mL ([2]; after 72 h): > 90%

CCN(C(=O)c1ccc2c(c1)OC(F)(F)O2)c1cccc(C(=O)Nc2c(Br)cc(C(F)(C(F)(F)F)C(F)(F)F)cc2OC(F)F)c1F [Compound I-43, N-(2-bromo-6-difluoromethoxy-4-heptafluoroisopropylphenyl)-2-fluoro-3-(N-ethyl-2,2-difluoro-1,3-benzodioxole-5-carboxamido) benzamide]
mortality at 10 µg/mL (armyworm): > 90% | mortality at 10 µg/mL (diamondback moth): > 90% | mortality at 600 µg/mL ([1]; after 72 hours): > 90% | mortality at 600 µg/mL ([2]; after 72 h): > 90%

CCCCN(C(=O)c1ccc2c(c1)OC(F)(F)O2)c1cccc(C(=O)Nc2c(Br)cc(C(F)(C(F)(F)F)C(F)(F)F)cc2OC(F)F)c1F [Compound I-46, N-(2-bromo-6-difluoromethoxy-4-heptafluoroisopropylphenyl)-2-fluoro-3-(N-n-butyl-2,2-difluoro-1,3-benzodioxole-5-carboxamido) benzamide]
mortality at 10 µg/mL (armyworm): > 90% | mortality at 10 µg/mL (diamondback moth): > 90% | mortality at 600 µg/mL ([1]; after 72 hours): > 90% | mortality at 600 µg/mL ([2]; after 72 h): > 90%

O=C(Nc1c(Br)cc(C(F)(C(F)(F)F)C(F)(F)F)cc1OC(F)F)c1cccc(N(CC2CC2)C(=O)c2ccc3c(c2)OC(F)(F)O3)c1F [Compound I-50, N-(2-bromo-6-difluoromethoxy-4-heptafluoroisopropylphenyl)-2-fluoro-3-(N-cyclopropylmethyl-2,2-difluoro-1,3-benzodioxole-5-carboxamido) benzamide]
mortality at 10 µg/mL (armyworm): > 90% | mortality at 10 µg/mL (diamondback moth): > 90% | mortality at 600 µg/mL ([1]; after 72 hours): > 90% | mortality at 600 µg/mL ([2]; after 72 h): > 90%

CC(C)=CCCC(C)CCN(C(=O)c1ccc2c(c1)OC(F)(F)O2)c1cccc(C(=O)Nc2c(Br)cc(C(F)(C(F)(F)F)C(F)(F)F)cc2OC(F)F)c1F (stereo not shown) [Compound I-57]
mortality at 10 µg/mL (armyworm): > 90% | mortality at 10 µg/mL (diamondback moth): > 90% | mortality at 600 µg/mL ([1]; after 72 hours): > 90% | mortality at 600 µg/mL ([2]; after 72 h): > 90%

CSCCCN(C(=O)c1ccc2c(c1)OC(F)(F)O2)c1cccc(C(=O)Nc2c(Br)cc(C(F)(C(F)(F)F)C(F)(F)F)cc2OC(F)F)c1F [Compound I-60, N-(2-bromo-6-difluoromethoxy-4-heptafluoroisopropylphenyl)-2-fluoro-3-(N-(3-methylthiopropyl)-2,2-difluoro-1,3-benzodioxole-5-carboxamido) benzamide]
mortality at 10 µg/mL (armyworm): > 90% | mortality at 10 µg/mL (diamondback moth): > 90% | mortality at 600 µg/mL ([1]; after 72 hours): > 90% | mortality at 600 µg/mL ([2]; after 72 h): > 90%

CN(C(=O)c1ccc2c(c1)OC(F)(F)O2)c1cccc(C(=O)Nc2c(Br)cc(C(F)(C(F)(F)F)C(F)(F)F)cc2OC(F)(F)F)c1F [Compound I-62, N-(2-bromo-4-heptafluoroisopropyl-6-trifluoromethoxyphenyl)-2-fluoro-3-(N-methyl-2,2-difluoro-1,3-benzodioxole-5-carboxamido) benzamide]
mortality at 10 µg/mL (armyworm): > 90% | mortality at 10 µg/mL (diamondback moth): > 90% | mortality at 600 µg/mL ([1]; after 72 hours): > 90% | mortality at 600 µg/mL ([2]; after 72 h): > 90%

O=C(Nc1cccc(C(=O)Nc2c(Cl)cc(C(F)(C(F)(F)F)C(F)(F)F)cc2OC(F)F)c1F)c1ccc2c(c1)OC(F)(F)O2 [Compound I-81]
mortality at 10 µg/mL (armyworm): > 90% | mortality at 10 µg/mL (diamondback moth): > 90% | mortality at 600 µg/mL ([1]; after 72 hours): > 90% | mortality at 600 µg/mL ([2]; after 72 h): > 90%

CN(C(=O)c1ccc2c(c1)OC(F)(F)O2)c1cccc(C(=O)Nc2c(Cl)cc(C(F)(C(F)(F)F)C(F)(F)F)cc2OC(F)F)c1F [Compound I-82]
mortality at 10 µg/mL (armyworm): > 90% | mortality at 10 µg/mL (diamondback moth): > 90% | mortality at 600 µg/mL ([1]; after 72 hours): > 90% | mortality at 600 µg/mL ([2]; after 72 h): > 90%

O=C(Nc1cccc(C(=O)Nc2c(OC(F)F)cc(C(F)(C(F)(F)F)C(F)(F)F)cc2C(F)(F)F)c1F)c1ccc2c(c1)OC(F)(F)O2 [Compound I-121]
mortality at 10 µg/mL (armyworm): > 90% | mortality at 10 µg/mL (diamondback moth): > 90% | mortality at 600 µg/mL ([1]; after 72 hours): > 90% | mortality at 600 µg/mL ([2]; after 72 h): > 90%

CN(C(=O)c1ccc2c(c1)OC(F)(F)O2)c1cccc(C(=O)Nc2c(OC(F)F)cc(C(F)(C(F)(F)F)C(F)(F)F)cc2C(F)(F)F)c1F [Compound I-122]
mortality at 10 µg/mL (armyworm): > 90% | mortality at 10 µg/mL (diamondback moth): > 90% | mortality at 600 µg/mL ([1]; after 72 hours): > 90% | mortality at 600 µg/mL ([2]; after 72 h): > 90%

CNC(=O)c1cc(C#N)cc(C)c1NC(=O)c1cc(Br)nn1-c1ncccc1Cl [Cyantraniliprole, reference compound]
mortality at 10 µg/mL ([1]; 72 h): 25% | mortality at 100 µg/mL ([1]; 72 h): 85% | mortality at 5 µg/mL ([2]; 72 h): 0% | mortality at 20 µg/mL ([2]; 72 h): 5%

O=C(Nc1cccc(C(=O)Nc2c(Br)cc(C(F)(C(F)(F)F)C(F)(F)F)cc2Br)c1F)c1ccc2c(c1)OC(F)(F)O2 [KC1, reference compound]
mortality at 10 µg/mL ([1]; 10 mg/L, after 72 hours): 15% | mortality at 100 µg/mL ([1]; 100 mg/L, after 72 hours): 85%

CN(C(=O)c1ccc2c(c1)OC(F)(F)O2)c1cccc(C(=O)Nc2c(Br)cc(C(F)(C(F)(F)F)C(F)(F)F)cc2Br)c1F [KC2, reference compound]
mortality at 10 µg/mL ([1]; 10 mg/L, after 72 hours): 59% | mortality at 100 µg/mL ([1]; 100 mg/L, after 72 hours): 90% | mortality at 5 µg/mL ([2]; 5 mg/L, after 72 h): 70% | mortality at 20 µg/mL ([2]; 20 mg/L, after 72 h): 76%

CN(C(=O)c1ccccc1)c1cccc(C(=O)Nc2c(Br)cc(C(F)(C(F)(F)F)C(F)(F)F)cc2OC(F)F)c1F [MC]
mortality at 10 µg/mL ([1]; 10 mg/L, after 72 hours): 72% | mortality at 100 µg/mL ([1]; 100 mg/L, after 72 hours): 76% | mortality at 10 µg/mL [3]: 0% | mortality at 100 µg/mL [3]: 0% | mortality at 600 µg/mL [3]: 0%

Spinetoram [reference compound]
Mortality (%) against Western Flower Thrips Nymphs ([1]; 10 mg/L, after 72 hours): 90% | Mortality (%) against Western Flower Thrips Nymphs ([1]; 100 mg/L, after 72 hours): 100%
